The results in this text go back to patent publication US9624208B2, “Benzoxazolinone compounds with selective activity in voltage-gated sodium channels” (Merck Sharp & Dohme Corp., priority 2012, dated 2017).

The target in one experiment is T1, human Nav1.7 (Homo sapiens, UniProt Q15858).
T1 construct: expressed in transfected cells
In words: PatchXpress sodium current measurement, inactivated state block, Nav1.7. The format is cell-based. Particulars: channels stably expressed in HEK 293 cells, double-pulse protocol, 22° C., read-out: potency for the Nav 1.7 sodium ion channel (1.7=). A digest of the protocol:
(§1)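 HEK293 cells stably expressing channel; automated patch clamp at 22 °C, double-pulse protocol: hold 20 mV below V½ inactivation, 8000 ms prepulse 7 mV above V½, 2 ms step to −120 mV, 20 ms test pulse to −20 mV. CsF-based internal (pH 7.3), NMDG/40 mM NaCl external (pH 7.5). Rundown-corrected % inhibition (≥2 concentrations) fitted to Hill equation for IC50.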

The next experiment concerns the target T2, human Nav1.5 (Homo sapiens, UniProt Q14524).
T2 construct: expressed in transfected cells
In words: PatchXpress sodium current measurement, inactivated state block, Nav1.5. The format is cell-based. Particulars: determined by PatchXpress measurement, HEK 293 cells. A digest of the protocol: as §1

T2 sequence (Q14524 whole entry): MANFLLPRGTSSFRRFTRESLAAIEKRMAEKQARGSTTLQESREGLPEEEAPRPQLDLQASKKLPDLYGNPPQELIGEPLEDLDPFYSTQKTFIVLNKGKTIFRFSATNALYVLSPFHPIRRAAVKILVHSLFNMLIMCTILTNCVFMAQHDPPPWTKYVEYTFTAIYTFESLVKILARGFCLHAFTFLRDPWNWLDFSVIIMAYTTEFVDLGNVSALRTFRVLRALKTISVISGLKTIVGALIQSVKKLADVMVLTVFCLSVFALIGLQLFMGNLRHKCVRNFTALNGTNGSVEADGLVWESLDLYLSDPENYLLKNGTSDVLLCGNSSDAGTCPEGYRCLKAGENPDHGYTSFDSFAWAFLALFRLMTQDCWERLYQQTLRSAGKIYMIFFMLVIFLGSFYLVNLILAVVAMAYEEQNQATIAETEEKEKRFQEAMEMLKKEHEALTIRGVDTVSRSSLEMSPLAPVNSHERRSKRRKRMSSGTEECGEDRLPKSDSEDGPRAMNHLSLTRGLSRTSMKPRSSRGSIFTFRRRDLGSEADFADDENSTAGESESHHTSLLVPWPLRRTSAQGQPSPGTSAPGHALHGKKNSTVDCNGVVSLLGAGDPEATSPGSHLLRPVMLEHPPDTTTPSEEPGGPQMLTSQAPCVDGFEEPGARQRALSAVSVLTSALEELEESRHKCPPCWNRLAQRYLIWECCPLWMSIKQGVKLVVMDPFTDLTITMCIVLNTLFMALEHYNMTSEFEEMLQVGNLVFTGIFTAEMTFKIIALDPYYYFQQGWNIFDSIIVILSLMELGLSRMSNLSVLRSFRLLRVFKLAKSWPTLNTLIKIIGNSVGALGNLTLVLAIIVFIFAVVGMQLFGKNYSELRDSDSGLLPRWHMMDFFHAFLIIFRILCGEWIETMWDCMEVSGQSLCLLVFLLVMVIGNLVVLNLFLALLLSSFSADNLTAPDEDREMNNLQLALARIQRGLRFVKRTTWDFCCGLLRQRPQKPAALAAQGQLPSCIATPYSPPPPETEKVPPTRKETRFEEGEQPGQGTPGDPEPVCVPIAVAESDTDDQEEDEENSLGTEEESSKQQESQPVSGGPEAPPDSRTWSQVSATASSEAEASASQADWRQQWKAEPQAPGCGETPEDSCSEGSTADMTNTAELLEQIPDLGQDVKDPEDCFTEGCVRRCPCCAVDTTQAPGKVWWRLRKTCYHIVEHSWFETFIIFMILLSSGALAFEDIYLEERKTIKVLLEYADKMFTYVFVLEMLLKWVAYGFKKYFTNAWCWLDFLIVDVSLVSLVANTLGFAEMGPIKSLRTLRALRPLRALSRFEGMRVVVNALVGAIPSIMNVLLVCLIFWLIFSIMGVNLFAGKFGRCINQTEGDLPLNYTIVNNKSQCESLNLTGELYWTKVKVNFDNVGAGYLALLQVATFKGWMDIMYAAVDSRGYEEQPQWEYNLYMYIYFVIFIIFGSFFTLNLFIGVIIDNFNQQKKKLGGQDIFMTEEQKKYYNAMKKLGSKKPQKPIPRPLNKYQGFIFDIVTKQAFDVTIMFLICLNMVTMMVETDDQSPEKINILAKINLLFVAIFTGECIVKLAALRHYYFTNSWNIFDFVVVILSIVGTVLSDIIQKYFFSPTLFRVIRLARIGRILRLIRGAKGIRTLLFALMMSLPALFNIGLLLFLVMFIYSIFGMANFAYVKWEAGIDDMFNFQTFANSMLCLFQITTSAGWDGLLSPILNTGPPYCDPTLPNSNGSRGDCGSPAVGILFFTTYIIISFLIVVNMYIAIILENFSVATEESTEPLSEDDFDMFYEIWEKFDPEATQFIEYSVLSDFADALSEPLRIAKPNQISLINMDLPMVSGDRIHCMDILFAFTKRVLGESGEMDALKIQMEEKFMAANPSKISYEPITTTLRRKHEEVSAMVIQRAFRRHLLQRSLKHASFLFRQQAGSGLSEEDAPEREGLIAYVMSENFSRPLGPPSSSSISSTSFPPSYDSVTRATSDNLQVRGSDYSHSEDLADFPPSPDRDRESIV
T1 sequence (Q15858 whole entry): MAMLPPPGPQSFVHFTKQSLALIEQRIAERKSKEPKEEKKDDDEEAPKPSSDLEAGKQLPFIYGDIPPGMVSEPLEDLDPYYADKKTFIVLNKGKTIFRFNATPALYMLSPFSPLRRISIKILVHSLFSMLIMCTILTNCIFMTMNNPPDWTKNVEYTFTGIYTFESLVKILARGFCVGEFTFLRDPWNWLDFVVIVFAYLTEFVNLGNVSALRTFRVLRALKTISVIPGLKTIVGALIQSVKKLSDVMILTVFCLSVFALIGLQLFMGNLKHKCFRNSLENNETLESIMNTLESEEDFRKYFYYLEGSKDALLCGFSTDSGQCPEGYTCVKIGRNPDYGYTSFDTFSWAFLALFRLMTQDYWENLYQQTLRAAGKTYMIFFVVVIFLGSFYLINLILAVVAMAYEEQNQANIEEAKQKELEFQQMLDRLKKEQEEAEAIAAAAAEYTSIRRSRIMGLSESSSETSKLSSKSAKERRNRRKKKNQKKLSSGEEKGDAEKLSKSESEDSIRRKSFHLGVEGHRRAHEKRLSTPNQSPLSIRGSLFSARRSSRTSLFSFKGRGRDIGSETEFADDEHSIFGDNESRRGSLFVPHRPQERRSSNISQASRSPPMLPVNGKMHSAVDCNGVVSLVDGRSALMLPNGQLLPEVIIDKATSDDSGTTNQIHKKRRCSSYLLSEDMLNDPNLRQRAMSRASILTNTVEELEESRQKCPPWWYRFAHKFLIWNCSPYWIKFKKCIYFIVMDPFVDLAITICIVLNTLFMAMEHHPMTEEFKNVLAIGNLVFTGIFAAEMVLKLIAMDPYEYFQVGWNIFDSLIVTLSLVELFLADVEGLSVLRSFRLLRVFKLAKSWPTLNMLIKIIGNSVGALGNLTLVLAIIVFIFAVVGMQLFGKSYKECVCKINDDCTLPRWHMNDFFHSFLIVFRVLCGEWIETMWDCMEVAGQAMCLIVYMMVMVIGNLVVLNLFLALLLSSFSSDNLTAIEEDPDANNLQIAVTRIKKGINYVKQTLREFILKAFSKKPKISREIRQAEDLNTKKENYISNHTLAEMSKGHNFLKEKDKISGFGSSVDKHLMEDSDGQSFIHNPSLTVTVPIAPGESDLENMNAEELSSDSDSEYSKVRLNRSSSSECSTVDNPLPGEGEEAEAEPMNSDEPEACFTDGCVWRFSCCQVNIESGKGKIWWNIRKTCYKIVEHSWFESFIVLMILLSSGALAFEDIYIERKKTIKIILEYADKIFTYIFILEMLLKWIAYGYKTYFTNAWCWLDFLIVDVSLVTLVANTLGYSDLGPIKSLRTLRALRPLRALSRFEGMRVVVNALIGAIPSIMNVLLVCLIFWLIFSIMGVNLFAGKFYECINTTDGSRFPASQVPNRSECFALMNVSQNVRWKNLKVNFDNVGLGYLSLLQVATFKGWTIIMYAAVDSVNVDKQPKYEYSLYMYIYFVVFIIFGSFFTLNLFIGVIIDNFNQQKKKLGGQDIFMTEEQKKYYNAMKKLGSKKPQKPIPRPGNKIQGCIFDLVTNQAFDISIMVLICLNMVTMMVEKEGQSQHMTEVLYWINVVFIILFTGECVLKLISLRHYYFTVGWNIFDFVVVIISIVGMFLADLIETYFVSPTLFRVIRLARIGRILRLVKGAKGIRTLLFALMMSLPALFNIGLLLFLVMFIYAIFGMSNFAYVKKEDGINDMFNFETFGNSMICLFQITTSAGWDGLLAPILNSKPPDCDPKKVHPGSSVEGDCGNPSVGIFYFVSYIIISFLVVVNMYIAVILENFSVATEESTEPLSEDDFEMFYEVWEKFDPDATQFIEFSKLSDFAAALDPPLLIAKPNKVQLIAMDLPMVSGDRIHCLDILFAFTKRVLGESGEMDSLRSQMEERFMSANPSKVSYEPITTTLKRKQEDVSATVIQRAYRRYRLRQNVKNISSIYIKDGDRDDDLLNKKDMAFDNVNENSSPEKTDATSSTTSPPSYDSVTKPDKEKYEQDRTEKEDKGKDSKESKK

As to `C[C@H](c1cccc(C#CCN2CCN(C)CC2)c1)n1c(=O)oc2cc(S(=O)(=O)Nc3cccc(F)n3)c(F)cc21` [Ex21-14, 5-fluoro-N-(6-fluoropyridin-2-yl)-3-[(1R)-1-{3-[3-(4-methylpiperazin-1-yl)prop-1-yn-1-yl]phenyl}ethyl]-2-oxo-2,3-dihydro-1,3-benzoxazole-6-sulfonamide], the IC50 on human Nav1.7 amounted to 234 nM. Moreover, on human Nav1.5, the “ratio of Nav 1.5:Nav 1.7 potency” value is listed as 134.
The corresponding values for `CCN(CC)CC#Cc1cccc([C@@H](C)n2c(=O)oc3cc(S(=O)(=O)Nc4cccc(F)n4)c(F)cc32)c1` [Ex21-15, 3-[(1R)-1-{3-[3-(diethylamino)prop-1-yn-1-yl]phenyl}ethyl]-5-fluoro-N-(6-fluoropyridin-2-yl)-2-oxo-2,3-dihydro-1,3-benzoxazole-6-sulfonamide] are 516 nM and 58.
As for `C[C@H](c1cccc(C#C[C@@H]2CCCC[C@@H]2N)c1)n1c(=O)oc2cc(S(=O)(=O)Nc3cccc(F)n3)c(F)cc21` [Ex21-17, 3-[(1R)-1-(3-{[(1S,2S)-2-aminocyclohexyl]ethynyl}phenyl)ethyl]-5-fluoro-N-(6-fluoropyridin-2-yl)-2-oxo-2,3-dihydro-1,3-benzoxazole-6-sulfonamide], the IC50 on human Nav1.7 came out at 68 nM. Also, the “ratio of Nav 1.5:Nav 1.7 potency” value at human Nav1.5 stood at 41.
The corresponding values for `C[C@H](c1cccc(C#CC2CCCC2N)c1)n1c(=O)oc2cc(S(=O)(=O)Nc3cccc(F)n3)c(F)cc21` (stereo partly drawn) [Ex21-18, 3-[(1R)-1-{3-[(2-aminocyclopentyl)ethynyl]phenyl}ethyl]-5-fluoro-N-(6-fluoropyridin-2-yl)-2-oxo-2,3-dihydro-1,3-benzoxazole-6-sulfonamide] are 118 nM and 64.
The matching figures for `Cc1cc2c(cc1S(=O)(=O)Nc1cccc(F)n1)oc(=O)n2[C@H](C)c1cccc(C#CCN2CCC2)c1` [Ex21-20, 3-[(1R)-1-{3-[3-(azetidin-1-yl)prop-1-yn-l-yl]phenyl}ethyl]-N-(6-fluoropyridin-2-yl)-5-methyl-2-oxo-2,3-dihydro-1,3-benzoxazole-6-sulfonamide]: 200 nM and 30.
The matching figures for `C[C@H](c1cccc(C#CCN)c1)n1c(=O)oc2cc(S(=O)(=O)Nc3cccc(F)n3)c(F)cc21` [Ex21-21, 3-{(1R)-1-[3-(3-aminoprop-1-yn-1-yl)phenyl]ethyl}-5-fluoro-N-(6-fluoropyridin-2-yl)-2-oxo-2,3-dihydro-1,3-benzoxazole-6-sulfonamide]: 155 nM and 193.
In the case of `Cc1c(C#CCN)cccc1[C@@H](C)n1c(=O)oc2cc(S(=O)(=O)Nc3cccc(F)n3)c(F)cc21` [Ex21-22, 3-{(1R)-1-[3-(3-aminoprop-1-yn-1-yl)-2-methylphenyl]ethyl}-5-fluoro-N-(6-fluoropyridin-2-yl)-2-oxo-2,3-dihydro-1,3-benzoxazole-6-sulfonamide], the IC50 on human Nav1.7 worked out at 136 nM. Also, the “ratio of Nav 1.5:Nav 1.7 potency” value on human Nav1.5 was 220.
The corresponding values for `Cc1cc2c(cc1S(=O)(=O)Nc1cccc(F)n1)oc(=O)n2[C@H](C)c1cccc(C#CCN)c1` [Ex21-23, 3-{(1R)-1-[3-(3-aminoprop-1-yn-1-yl)phenyl]ethyl}-N-(6-fluoropyridin-2-yl)-5-methyl-2-oxo-2,3-dihydro-1,3-benzoxazole-6-sulfonamide] are 90 nM and 251.
The corresponding values for `Cc1cc2c(cc1S(=O)(=O)Nc1cccc(F)n1)oc(=O)n2[C@H](C)c1cccc(C#CCN)c1C` [Ex21-24, 3-{(1R)-1-[3-(3-aminoprop-1-yn-1-yl)-2-methylphenyl]ethyl}-N-(6-fluoropyridin-2-yl)-5-methyl-2-oxo-2,3-dihydro-1,3-benzoxazole-6-sulfonamide] are 102 nM and 240.
The matching figures for `Cc1cc2c(cc1S(=O)(=O)Nc1cccc(F)n1)oc(=O)n2[C@H](C)c1cccc(C)c1C#C[C@@H]1CCCC[C@@H]1N` [Ex21-25, 3-[(1R)-1-(2-{[(1S,2S)-2-aminocyclohexyl]-ethynyl}-3-methylphenyl)ethyl]-N-(6-fluoropyridin-2-yl)-5-methyl-2-oxo-2,3-dihydro-1,3-benzoxazole-6-sulfonamide]: 9 nM and 167.
As for `Cc1cc2c(cc1S(=O)(=O)Nc1cccc(F)n1)oc(=O)n2[C@H](C)c1cccc(C)c1C#C[C@H]1CCCC[C@H]1N` [Ex21-26, 3-[(1R)-1-(2-{[(1R,2R)-2-aminocyclohexyl]-ethynyl}-3-methylphenyl)ethyl]-N-(6-fluoropyridin-2-yl)-5-methyl-2-oxo-2,3-dihydro-1,3-benzoxazole-6-sulfonamide], at human Nav1.7, the IC50 stood at 16 nM. For the same compound, at human Nav1.5, the “ratio of Nav 1.5:Nav 1.7 potency” value was 192.
The corresponding values for `Cc1cccc([C@@H](C)n2c(=O)oc3cc(S(=O)(=O)Nc4cccc(F)n4)c(F)cc32)c1C#C[C@@H]1CCCC[C@@H]1N` [Ex21-27, 3-[(1R)-1-(2-{[(1S,2S)-2-aminocyclohexyl]-ethynyl}-3-methylphenyl)ethyl]-5-fluoro-N-(6-fluoropyridin-2-yl)-2-oxo-2,3-dihydro-1,3-benzoxazole-6-sulfonamide] are 32 nM and 476.
The matching figures for `C[C@H](c1cccc(CCCN)c1)n1c(=O)oc2cc(S(=O)(=O)Nc3cccc(F)n3)c(F)cc21` [Ex22-1, 3-{(1R)-1-[3-(3-aminopropyl)phenyl]ethyl}-5-fluoro-N-(6-fluoropyridin-2-yl)-2-oxo-2,3-dihydro-1,3-benzoxazole-6-sulfonamide]: 55 nM and 380.
The matching figures for `Cc1cc2c(cc1S(=O)(=O)Nc1cccc(F)n1)oc(=O)n2[C@H](C)c1cccc(CCCN)c1` [Ex22-2, 3-{(1R)-1-[3-(3-amino-propyl)phenyl]ethyl}-N-(6-fluoropyridin-2-yl)-5-methyl-2-oxo-2,3-dihydro-1,3-benzoxazole-6-sulfonamide]: 70 nM and 305.
`Cc1c(CCCN)cccc1[C@@H](C)n1c(=O)oc2cc(S(=O)(=O)Nc3cccc(F)n3)c(F)cc21` [Ex22-3, 3-{(1R)-1-[3-(3-amino-propyl)-2-methylphenyl]ethyl}-5-fluoro-N-(6-fluoropyridin-2-yl)-2-oxo-2,3-dihydro-1,3-benzoxazole-6-sulfonamide]: the IC50 on human Nav1.7 came to 101 nM. Moreover, on human Nav1.5, the “ratio of Nav 1.5:Nav 1.7 potency” value is listed as 297.
The matching figures for `C[C@H](c1cccc(CCCN2CCC2)c1)n1c(=O)oc2cc(S(=O)(=O)Nc3cccc(F)n3)c(F)cc21` [Ex22-4, 3-[(1R)-1-{3-[3-(azetidin-1-yl)propyl]phenyl}ethyl]-5-fluoro-N-(6-fluoro-pyridin-2-yl)-2-oxo-2,3-dihydro-1,3-benzoxazole-6-sulfonamide]: 169 nM and 178.
The corresponding values for `C[C@H](c1ccccc1N1CCNCC1)n1c(=O)oc2cc(S(=O)(=O)Nc3cccc(F)n3)c(F)cc21` [Ex23-1, 5-fluoro-N-(6-fluoropyridin-2-yl)-2-oxo-3-{(1R)-1-[2-(piperazin-1-yl)phenyl]ethyl}-2,3-dihydro-1,3-benzoxazole-6-sulfonamide] are 150 nM and 200.
As for `Cc1cc2c(cc1S(=O)(=O)Nc1cccc(F)n1)oc(=O)n2[C@H](C)c1ccccc1N1CCNCC1` [Ex23-2, N-(6-fluoropyridin-2-yl)-5-methyl-2-oxo-3-{(1R)-1-[2-(piperazin-1-yl)phenyl]ethyl}-2,3-dihydro-1,3-benzoxazole-6-sulfonamide], the IC50 on human Nav1.7 came to 74 nM. On human Nav1.5, the “ratio of Nav 1.5:Nav 1.7 potency” value turned out to be 405.
